Measured values taken from the METLIN SMRT retention time set (Domingo-Almenara et al. 2019).

Assay: gradient 5% acetonitrile 3 min, to 50% in 2 min, to 85% in 15 min, held 3 min, 100 µL/min
Conditions: column: Zorbax Extend-C18 2.1 x 50 mm; eluents: water / acetonitrile, 0.1% formic acid
In short: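 Retention time was recorded from adduct peaks, which were picked computationally and each inspected manually. Pure standards ran in mixtures of ~100 molecules on HPLC coupled to a quadrupole time-of-flight mass spectrometer, in positive and negative ionization mode, through a Zorbax Extend-C18 column (2.1 × 50 mm, 1.8 μm) at 100 μL/min. Eluents were water and acetonitrile, each with 0.1% formic acid.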

Row | RP-LC retention time | Compound
1 | 859 s | COc1ccc(NC(=O)Cn2nc3c(Oc4cc(C)cc(C)c4)nccn3c2=O)cc1
2 | 717 s | Cc1ccc(NC(=O)CCC(=O)N2CCSc3nc(C)cc(C)c32)cc1
3 | 1130 s | CCc1nc(-c2cccc(-c3noc(CNS(=O)(=O)c4ccc(Cl)cc4)n3)c2)cs1
4 | 695 s | O=S(=O)(Cc1c(F)cccc1Cl)N1CCC(CN2CCCCCC2)CC1
5 | 632 s | CN(Cc1ccco1)C(=O)c1ccc2ncnc(N3CCCCC3)c2c1
6 | 751 s | Cc1ccc(Oc2cccc(C(=O)Nc3ccc(-c4csc(C)n4)cc3)c2)nn1
7 | 853 s | CC1(c2noc(C3CC3)n2)CCN(C(=O)CCc2cc(Cl)no2)CC1
8 | 1100 s | O=C(Nc1cccc(Cl)c1)C1CCN(S(=O)(=O)c2cc(-c3noc(C4CC4)n3)cs2)CC1
9 | 845 s | CCOc1ccc(NC(=O)Cn2c(=O)nc(N3CCC(C)CC3)c3ccccc32)cc1
10 | 899 s | Cc1ccc(N2CC(c3noc(-c4ccc5ccccc5n4)n3)CC2=O)cc1 (configuration not stated)
11 | 921 s | Cc1cc(C)cc(Nc2c(-c3ccc(N(C)C)cc3)nc3cnccn23)c1
12 | 820 s | O=c1ccc(S(=O)(=O)N2CCCC2)cn1Cc1ccc(F)cc1
13 | 577 s | CN(C)CCCNC(=O)Cn1c(=O)n(-c2ccc(F)cc2)c2ncccc21
14 | 907 s | O=S(=O)(NCc1ccccc1Cl)c1ccc2c(c1)-c1oncc1CO2
15 | 766 s | COc1ccc(-c2cn3c(CC(=O)Nc4ccc(F)cc4Cl)csc3n2)cc1OC
16 | 1050 s | CCOc1ccc(-c2noc(Cn3nc(-c4ccccc4F)ccc3=O)n2)cc1
17 | 551 s | Cc1sc2cc(C(=O)NCCN3CCOCC3)[nH]c2c1CN1CCCCC1
18 | 873 s | O=C(NCCc1ccco1)c1ccc2cnn(Cc3ccc(F)cc3)c2c1
19 | 591 s | CCNc1ncnc2sc3c(c12)CCN(C(=O)c1ccncc1)C3
20 | 855 s | O=C(CN1C(=O)CC(c2ccccc2)S(=O)(=O)c2ccccc21)NCCc1ccccc1 (configuration not stated)
21 | 670 s | COc1ccc(NC(=O)C2CCN(c3cncnc3N3CCCCC3)CC2)cc1
22 | 628 s | CC(C(=O)NCCN1CCCCC1)n1c2ccccc2c2cnn(C)c(=O)c21 (configuration not stated)
23 | 1000 s | c1ccc(CCNc2nc(-c3ccccc3)no2)cc1

Row | RP-LC retention time | Compound
24 | 796 s | CC(C)N1C(=O)Cc2ccccc2C1C(=O)NCc1ccc(F)cc1 (configuration not stated)
25 | 692 s | O=C(CCC(=O)N1CC2CCCN2c2ccccc21)N1CCN(Cc2ccc3c(c2)OCO3)CC1 (configuration not stated)
26 | 783 s | CC1CN(C(=O)Cn2cc(SCC(=O)N3CCCCC3)c3ccccc32)CC(C)O1 (configuration not stated)
27 | 920 s | O=C(NCC1COc2ccccc2O1)C(=O)c1c[nH]c2ccccc12 (configuration not stated)
28 | 554 s | O=C(C1CCN(c2cncnc2N2CCCCC2)CC1)N1CCCC1
29 | 1070 s | COc1ccc(-c2csc(Nc3ccccc3)n2)cc1
30 | 594 s | COc1nn(C)cc1-c1nnc(SCC(=O)NCc2ccc(F)cc2)n1C
31 | 851 s | CC(C)CN(CC1CN(C(=O)COc2ccccc2)CCO1)C(=O)c1ccccc1 (configuration not stated)
32 | 629 s | Cc1ccn2c(Nc3ccc4c(c3)OCO4)c(-c3ccc(O)cc3)nc2c1
33 | 700 s | O=C(Cn1cc(-c2ccccc2)c2ncnc(N3CCOCC3)c21)N1CCCCC1
34 | 957 s | O=C(CCC(=O)N1Cc2cccn2-c2ccccc21)NCc1cccc(Cl)c1
35 | 662 s | O=C(Nc1ccc2c(c1)OCCO2)C1CCN(c2cc(N3CCSCC3)ncn2)CC1
36 | 597 s | NC(=O)C1CCN(Cc2nc(-c3ccc(N4CCSCC4)nc3)no2)CC1
37 | 650 s | Cn1nc(C(=O)NCc2cc(-c3cccs3)on2)ccc1=O
38 | 895 s | Cc1ccc(NC(=O)N2CCC(c3nc(C(=O)N4CCCC4)c(C)o3)CC2)cc1Cl
39 | 724 s | CSc1ccc(-c2nc3nc(C)cc(C)n3c2Nc2ccc3c(c2)OCCO3)cc1
40 | 850 s | CCc1nc2c(NC(=O)c3ccc(C)c(F)c3)cccn2n1
41 | 754 s | CCOC(=O)c1nc(NCc2cccc(OC)c2)c2ccccc2n1
42 | 867 s | Cc1nnc2ccc(-c3noc(-c4ccccc4)n3)cn12
43 | 1030 s | COC(=O)c1cc2ccsc2n1Cc1ccccc1C#N
44 | 966 s | CCC(C)NS(=O)(=O)c1cc(-c2nnc(-c3ccccc3)o2)ccc1F (configuration not stated)
45 | 950 s | CCC(C(=O)N1CCOc2ccc(C)cc21)n1cnc2nc3c(cc2c1=O)CCCC3 (configuration not stated)
46 | 692 s | Cc1ccccc1CNC(=O)c1cn2ccncc2n1

Row | RP-LC retention time | Compound
47 | 1110 s | Cc1ccc(-c2noc(Cn3c(=O)n(-c4ccccc4C)c(=O)c4sccc43)n2)cc1C
48 | 725 s | Cc1ccc(CNC(=O)CN2CCN(C(=O)Nc3ccc(Cl)cc3)CC2=O)o1
49 | 978 s | CCOc1ccccc1NC(=O)c1cnc(-c2ccccc2)nc1-c1ccncc1
50 | 590 s | CCCn1cnc2cc(CNC(=O)C3CCCC3)ccc21
51 | 652 s | CS(=O)(=O)N1CCN(C(=O)CCCn2nc(-c3ccc(F)cc3)ccc2=O)CC1
52 | 563 s | CCN1CCN(C(=O)CCC(=O)N2CCc3c(c(C(=O)N4CCCC4)nn3C)C2)CC1
53 | 962 s | COc1ccc(S(=O)(=O)NCCc2cn(CC(C)C)c3ncccc23)cc1Cl
54 | 645 s | O=C(O)c1cn(-c2ccc3c(c2)OCO3)nn1
55 | 889 s | O=C1Nc2ccccc2OC1C(=O)N1CCN(c2ccc(Cl)cc2)CC1 (configuration not stated)
56 | 815 s | Cc1ccc(C)c(Nc2c(-c3ccccc3)nc3ncccn23)c1
57 | 669 s | O=C(Nc1nc(CC(=O)N2CCN(c3ncccn3)CC2)cs1)C1CCCC1
58 | 1090 s | N#CC(c1ccccc1)C(C/C(=N\O)c1ccccc1)c1ccccc1 (configuration not stated)
59 | 875 s | CS(=O)(=O)N1CC(C(=O)Nc2ccccc2)C2(CCCCC2)C1 (configuration not stated)
60 | 816 s | CC(C)CC(=O)Nc1ccc(OCc2cc(C(=O)NC(C)C)no2)cc1
61 | 873 s | COc1ccc(Cl)cc1NC(=O)NC1CCN(c2ccccc2)C1=O (configuration not stated)
62 | 740 s | O=C(NC1CCN(c2cc(-c3ccc(F)cc3)[nH]n2)C1)c1ccc(F)cc1Cl (configuration not stated)
63 | 726 s | COc1ccc(-c2nc3cc(C)ccn3c2NC(=O)Cc2cccc3ccccc23)cc1
64 | 867 s | O=C(Nc1ccccc1Cl)N1CCC(N2CCN(Cc3ccccc3)C(=O)C2=O)CC1
65 | 819 s | COc1ccc(Cc2cnc(NC(=O)C3Cc4ccccc4C(=O)O3)s2)cc1 (configuration not stated)
66 | 1080 s | Cc1nc2c(sc3nc(-c4ccccc4)ccc32)c(=O)n1CC(=O)NCCc1ccc(Cl)cc1
67 | 933 s | Cn1c(=O)sc2cc(S(=O)(=O)N3CCC(C(=O)N4CCc5ccccc54)CC3)ccc21
